Data from ChEMBL document CHEMBL1201862, “PubChem BioAssay data set” (2004).
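Step 1: Grow cells in 96-well plates. Step 2: Expose to compound for 48 hours at 5 concentrations. Step 3: Interpolate endpoints linearly; if unreached, use highest concentration. GI50 marks 50% less growth.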 Calls of active or inactive are those of the source. Rule as the data show it: active = GI50 up to about 1.1 µM and inactive = higher.

How the values were obtained:
Assay in all cases: inhibition of tumour cell growth, NCI panel, 48 h
786-0 = test system: 786-0
HCT-116 = test system: HCT-116
HOP-92 = test system: HOP-92
IGROV-1 = test system: IGROV-1
K562 = test system: K562
LOX IMVI = test system: LOX IMVI
M14 = test system: M14
NCI-H460 = test system: NCI-H460
OVCAR-5 = test system: OVCAR-5
RXF 393 = test system: RXF 393
SF-295 = test system: SF-295
SR = test system: SR
TK-10 = test system: TK-10
UACC-62 = test system: UACC-62
EKVX = test system: EKVX

Measured: GI50

CC1(C)CC(=O)c2c(oc3cc(O)c(O)cc23)C1
inactive: 786-0 26.3 µM | HCT-116 > 10 µM | HOP-92 36.3 µM | IGROV-1 40.2 µM | K562 24.7 µM | LOX IMVI 17.1 µM | M14 24.2 µM | NCI-H460 32 µM | OVCAR-5 15.5 µM | RXF 393 29.4 µM | SF-295 43.3 µM | SR 18.8 µM | TK-10 > 100 µM | UACC-62 17.3 µM

CCn1c2c(c3ccccc31)[C@@H](c1ccc(Cl)cc1)CC1C(=O)N(c3ccccc3)C(=O)C21 (stereo partly drawn)
inactive: 786-0 > 100 µM | EKVX > 100 µM | HCT-116 37.6 µM | HOP-92 27.7 µM | IGROV-1 > 100 µM | K562 77.3 µM | LOX IMVI > 100 µM | M14 > 100 µM | NCI-H460 67.1 µM | OVCAR-5 > 100 µM | RXF 393 38 µM | SF-295 59.3 µM | SR 12.8 µM | TK-10 > 100 µM | UACC-62 51.2 µM

O=C(CC1(O)C(=O)Nc2ccccc21)c1ccc(Cl)c(Cl)c1 (stereo not drawn)
inactive: 786-0 > 100 µM | EKVX 69.3 µM | HCT-116 > 100 µM | HOP-92 > 100 µM | IGROV-1 > 100 µM | K562 > 100 µM | LOX IMVI > 100 µM | M14 > 100 µM | NCI-H460 > 100 µM | OVCAR-5 > 100 µM | RXF 393 > 100 µM | SF-295 > 100 µM | SR > 100 µM | UACC-62 > 100 µM

CC1=C(c2cc(C(=O)Nc3cc(C)ccc3C)nc(N)n2)Sc2ccccc2N1
inactive: 786-0 > 100 µM | EKVX > 100 µM | HCT-116 > 100 µM | HOP-92 > 100 µM | IGROV-1 > 100 µM | K562 > 100 µM | LOX IMVI > 100 µM | M14 > 100 µM | NCI-H460 > 100 µM | OVCAR-5 > 100 µM | RXF 393 > 100 µM | SF-295 > 100 µM | SR 65.8 µM | TK-10 > 100 µM | UACC-62 > 100 µM

C=CCc1cc(OC)c2c(c1)C(OC)CC(c1ccc(OC)c(OC)c1)O2 (stereo not drawn)
inactive: 786-0 > 100 µM | EKVX > 100 µM | HCT-116 > 100 µM | IGROV-1 > 100 µM | K562 61.8 µM | LOX IMVI > 100 µM | M14 78.2 µM | NCI-H460 > 100 µM | OVCAR-5 > 100 µM | SF-295 > 100 µM | TK-10 > 100 µM | UACC-62 > 100 µM

Cc1ccc([N+](=O)[O-])cc1NC(=O)/C(=N/NC(=S)NN)C1SC(=S)NC1=O (stereo not drawn)
inactive: 786-0 > 100 µM | EKVX > 100 µM | HCT-116 > 100 µM | HOP-92 > 100 µM | IGROV-1 > 100 µM | K562 > 100 µM | LOX IMVI > 100 µM | M14 > 100 µM | NCI-H460 > 100 µM | OVCAR-5 > 100 µM | RXF 393 > 100 µM | SF-295 > 100 µM | SR > 100 µM | TK-10 > 100 µM | UACC-62 > 100 µM

COc1cc(/C=C2\[C@H]3c4c(c(OC)c(C)c(OC)c4OC)C[C@@H](C(=O)N2Cc2ccccc2)N3C(=O)OCC(C)C)c(OC)c(C)c1OC
inactive: 786-0 > 100 µM | EKVX > 100 µM | HCT-116 12.1 µM | HOP-92 2.99 µM | IGROV-1 > 77.8 µM | K562 42.2 µM | LOX IMVI > 100 µM | M14 > 100 µM | OVCAR-5 > 27.5 µM | RXF 393 > 100 µM | SF-295 > 100 µM | SR 13.3 µM | TK-10 > 100 µM | UACC-62 > 100 µM

COC1=CC(=Nc2c(Cl)cc(Cl)cc2OC(=O)c2ccc([N+](=O)[O-])cc2)C=C(OC)C1=O
inactive: 786-0 14.8 µM | EKVX 16 µM | HCT-116 6.53 µM | HOP-92 5.62 µM | IGROV-1 14.5 µM | K562 2.53 µM | LOX IMVI 1.81 µM | M14 13 µM | NCI-H460 14.4 µM | OVCAR-5 19.5 µM | RXF 393 12.1 µM | SF-295 11.5 µM | SR 3.22 µM | TK-10 22.8 µM | UACC-62 4.26 µM

CC1=NOC(=O)/C1=C/c1ccccc1O
inactive: 786-0 > 100 µM | EKVX > 100 µM | HCT-116 > 100 µM | HOP-92 > 100 µM | IGROV-1 > 100 µM | K562 > 100 µM | LOX IMVI > 100 µM | M14 > 100 µM | NCI-H460 > 100 µM | OVCAR-5 > 100 µM | SF-295 > 100 µM | SR > 100 µM | TK-10 > 100 µM | UACC-62 > 100 µM

COC(=O)Nc1nc2cc(Br)ccc2[nH]1
inactive: 786-0 53.2 µM | EKVX > 100 µM | HCT-116 57 µM | HOP-92 > 100 µM | IGROV-1 35.9 µM | K562 17.6 µM | LOX IMVI > 100 µM | M14 43.9 µM | NCI-H460 24.9 µM | OVCAR-5 60.1 µM | RXF 393 25.8 µM | SF-295 30.7 µM | SR 6.44 µM | TK-10 58.7 µM | UACC-62 74.5 µM

C/N=C1\CC2c3cc(OC)c(OC)cc3CCN2C2=C1C(=O)CC(C)(C)C2 (stereo not drawn)
inactive: 786-0 > 100 µM | EKVX > 100 µM | HCT-116 > 100 µM | HOP-92 > 100 µM | LOX IMVI > 100 µM | NCI-H460 > 100 µM | OVCAR-5 > 100 µM | RXF 393 > 100 µM | SF-295 > 100 µM | SR > 100 µM | TK-10 > 100 µM

C=CCOC(=O)C1CCC(=O)N1C(=O)C(Cl)Cl (stereo not drawn)
inactive: 786-0 > 100 µM | EKVX > 100 µM | HCT-116 > 100 µM | HOP-92 > 100 µM | IGROV-1 > 100 µM | K562 > 100 µM | LOX IMVI > 100 µM | M14 > 100 µM | NCI-H460 > 100 µM | OVCAR-5 > 100 µM | SF-295 > 100 µM | TK-10 > 100 µM | UACC-62 > 100 µM

COc1c(C)cc2c(C(C)C)c(O)c(O)c(C=O)c2c1O
inactive: 786-0 26.4 µM | EKVX 27 µM | HCT-116 20.7 µM | HOP-92 35.3 µM | IGROV-1 30.5 µM | K562 17.2 µM | LOX IMVI 24 µM | M14 23.2 µM | NCI-H460 25.9 µM | OVCAR-5 28.9 µM | RXF 393 21.6 µM | SF-295 28.8 µM | TK-10 37 µM | UACC-62 20.6 µM

O=c1/c(=C/c2cccc3ccccc23)sc2nc3ccccc3n12
inactive: 786-0 > 100 µM | EKVX > 100 µM | HCT-116 > 100 µM | HOP-92 > 100 µM | IGROV-1 > 100 µM | K562 > 100 µM | LOX IMVI > 100 µM | M14 > 100 µM | NCI-H460 > 100 µM | OVCAR-5 > 100 µM | RXF 393 > 100 µM | SF-295 > 100 µM | TK-10 > 100 µM | UACC-62 > 100 µM

NN/C(Cc1ccccc1)=N\NO
inactive: 786-0 > 100 µM | EKVX > 100 µM | HCT-116 47.2 µM | HOP-92 > 100 µM | IGROV-1 > 100 µM | K562 85.7 µM | LOX IMVI 33.3 µM | M14 63.8 µM | NCI-H460 > 100 µM | OVCAR-5 > 100 µM | RXF 393 > 100 µM | SF-295 > 100 µM | TK-10 > 100 µM | UACC-62 56.2 µM

Cc1nc(-c2nc(C)c(C(=O)NN(C)C)s2)sc1C(=O)NN(C)C
inactive: 786-0 30.7 µM | EKVX > 100 µM | HOP-92 > 100 µM | IGROV-1 > 100 µM | K562 32.6 µM | LOX IMVI 23.6 µM | M14 > 100 µM | NCI-H460 > 100 µM | OVCAR-5 > 100 µM | SF-295 > 100 µM | SR 19.7 µM | TK-10 > 100 µM | UACC-62 > 100 µM

CCOc1ccccc1/N=C(/NC(=O)CC)SC
inactive: 786-0 > 10 µM | EKVX > 10 µM | HCT-116 81.1 µM | HOP-92 > 10 µM | IGROV-1 > 10 µM | K562 > 10 µM | LOX IMVI > 10 µM | M14 > 10 µM | NCI-H460 > 10 µM | OVCAR-5 > 10 µM | RXF 393 > 10 µM | SF-295 > 10 µM | SR > 10 µM | TK-10 > 10 µM | UACC-62 > 10 µM

Cc1ccc(Nc2ccc(Nc3ccc(C)cc3S(=O)(=O)O)c3c2C(=O)c2ccccc2C3=O)c(S(=O)(=O)O)c1
inactive: 786-0 > 100 µM | EKVX > 100 µM | HCT-116 > 100 µM | IGROV-1 > 100 µM | K562 > 100 µM | M14 > 100 µM | NCI-H460 > 100 µM | RXF 393 > 100 µM | SR > 100 µM | TK-10 > 100 µM | UACC-62 > 100 µM

CC[C@@H]1C[C@H]2CC3c4[nH]c5ccc(O)cc5c4CCN(C2)C31
inactive: 786-0 > 100 µM | EKVX > 100 µM | HCT-116 > 100 µM | HOP-92 36.8 µM | IGROV-1 > 100 µM | K562 99.5 µM | LOX IMVI > 100 µM | M14 > 100 µM | NCI-H460 > 100 µM | OVCAR-5 > 100 µM | RXF 393 72.3 µM | SF-295 > 100 µM | SR > 100 µM | TK-10 > 100 µM | UACC-62 > 100 µM
